Measured values reported in the supplement of paper PMC10627819.

How the values were obtained:
S. pneumoniae D39V = assay: fitness (endpoint OD595 vs no drug) (fraction); higher = more growth
Method in brief: (§1)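 Plates with 384 wells were inoculated at OD595 0.01 using 30 µl of TSB, LB Lennox or CY, or 55 µl for S. pneumoniae. Incubation was at 37 °C, with OD595 measured every 30 min for 14 h. Fitness is the stationary-phase transition optical density over the robust mean of no-drug control wells, after first-reading background subtraction; it is capped at 1.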

B. subtilis 168 = assay: as above
Method in brief: as §1

CN(C)[C@@H]1C(O)=C(C(N)=O)C(=O)[C@@]2(O)C(O)=C3C(=O)c4c(O)ccc(Cl)c4[C@@](C)(O)[C@H]3C[C@@H]12 [Chlortetracycline] + C/C(=C\C(=O)OCCCCCCCCC(=O)O)C[C@@H]1OC[C@H](C[C@@H]2O[C@H]2[C@@H](C)[C@H](C)O)[C@@H](O)[C@H]1O [Pseudomonic acid]
fitness, S. pneumoniae D39V
Details	first compound 0.012 µg/mL	first compound 0.024 µg/mL	first compound 0.048 µg/mL	first compound 0.375 µg/mL	first compound 0.75 µg/mL	first compound 1.5 µg/mL
partner 0.03 µg/mL	0.884	0.853	0.829	0.0434	0.0614	0.0477
partner 0.06 µg/mL	0.78	0.75	0.779	0.0787	0.0801	0.0542
partner 0.12 µg/mL	0.57	0.586	0.62	0.0891	0.0486	0.0665

CN(C)[C@@H]1C(O)=C(C(N)=O)C(=O)[C@@]2(O)C(O)=C3C(=O)c4c(O)ccc(Cl)c4[C@@](C)(O)[C@H]3C[C@@H]12 [Chlortetracycline] + CN(C)c1cc(NC(=O)CNC(C)(C)C)c(O)c2c1C[C@H]1C[C@H]3[C@H](N(C)C)C(O)=C(C(N)=O)C(=O)[C@@]3(O)C(O)=C1C2=O [Tigecycline]
Details	fitness
B. subtilis 168, first compound 0.0475 µg/mL, partner 0.039 µg/mL	0.924
B. subtilis 168, first compound 0.0475 µg/mL, partner 0.078 µg/mL	0.873
B. subtilis 168, first compound 0.0475 µg/mL, partner 0.156 µg/mL	0.823
B. subtilis 168, first compound 0.095 µg/mL, partner 0.039 µg/mL	0.828
B. subtilis 168, first compound 0.095 µg/mL, partner 0.078 µg/mL	0.781
B. subtilis 168, first compound 0.095 µg/mL, partner 0.156 µg/mL	0.784
B. subtilis 168, first compound 0.19 µg/mL, partner 0.039 µg/mL	0.651
B. subtilis 168, first compound 0.19 µg/mL, partner 0.078 µg/mL	0.605
B. subtilis 168, first compound 0.19 µg/mL, partner 0.156 µg/mL	0.5
S. pneumoniae D39V, first compound 0.012 µg/mL, partner 0.65 µg/mL	0.943
S. pneumoniae D39V, first compound 0.012 µg/mL, partner 1.3 µg/mL	0.98
S. pneumoniae D39V, first compound 0.012 µg/mL, partner 2.6 µg/mL	0.866
S. pneumoniae D39V, first compound 0.024 µg/mL, partner 0.65 µg/mL	0.949
S. pneumoniae D39V, first compound 0.024 µg/mL, partner 1.3 µg/mL	0.909
S. pneumoniae D39V, first compound 0.024 µg/mL, partner 2.6 µg/mL	0.862
S. pneumoniae D39V, first compound 0.048 µg/mL, partner 0.65 µg/mL	0.867
S. pneumoniae D39V, first compound 0.048 µg/mL, partner 1.3 µg/mL	0.814
S. pneumoniae D39V, first compound 0.048 µg/mL, partner 2.6 µg/mL	0.815
S. pneumoniae D39V, first compound 0.375 µg/mL, partner 0.325 µg/mL	0.0315
S. pneumoniae D39V, first compound 0.375 µg/mL, partner 0.65 µg/mL	0.0403
S. pneumoniae D39V, first compound 0.375 µg/mL, partner 1.3 µg/mL	0.0368
S. pneumoniae D39V, first compound 0.75 µg/mL, partner 0.325 µg/mL	0.0625
S. pneumoniae D39V, first compound 0.75 µg/mL, partner 0.65 µg/mL	0.0555
S. pneumoniae D39V, first compound 0.75 µg/mL, partner 1.3 µg/mL	0.0691
S. pneumoniae D39V, first compound 1.5 µg/mL, partner 0.325 µg/mL	0.0404
S. pneumoniae D39V, first compound 1.5 µg/mL, partner 0.65 µg/mL	0.0304
S. pneumoniae D39V, first compound 1.5 µg/mL, partner 1.3 µg/mL	0.0788

fitness, B. subtilis 168, one replicate
Details	first compound 0.0475 µg/mL	first compound 0.095 µg/mL	first compound 0.19 µg/mL
partner 0.125 µg/mL	0.996	0.974	0.827
partner 0.25 µg/mL	0.915	0.874	0.763
partner 0.5 µg/mL	0.933	0.879	0.84

CC(=O)Oc1ccccc1C(=O)O [Acetylsalicylic acid] + C[C@@H](O)[C@H]1C(=O)N2C(C(=O)O)=C(SCCNC=N)C[C@H]12 [Imipenem]
fitness, S. pneumoniae D39V
Details	partner 0.005 µg/mL	partner 0.0065 µg/mL	partner 0.01 µg/mL	partner 0.013 µg/mL	partner 0.02 µg/mL	partner 0.026 µg/mL
first compound 250 µg/mL	0.948	0.983	0.898	0.953	0.912	0.914
first compound 500 µg/mL	0.956	0.969	0.954	0.993	0.955	0.912
first compound 1000 µg/mL	0.856	0.868	0.85	0.943	0.813	0.907

CC(=O)Oc1ccccc1C(=O)O [Acetylsalicylic acid] + CCC(C)C1C(=O)NC(=C)C(=O)NC(C(=O)NC(CSCC(C(=O)N1)NC(=O)/C(=C/C)/NC(=O)C(C(C)CC)N)C(=O)NC2C(SCC(NC(=O)CNC(=O)C3CCCN3C2=O)C(=O)NC(CCCCN)C(=O)NC4C(SCC(NC(=O)CNC(=O)C(NC(=O)C(NC(=O)C(NC(=O)CNC4=O)C)CC(C)C)CCSC)C(=O)NC(CC(=O)N)C(=O)NC(CCSC)C(=O)NC(CCCCN)C(=O)NC5C(SCC6C(=O)NC(C(=O)NC(CSC(C(C(=O)N6)NC(=O)C(NC5=O)C)C)C(=O)NC(CO)C(=O)NC(C(C)CC)C(=O)NC(CC7=CN=CN7)C(=O)NC(C(C)C)C(=O)NC(=C)C(=O)NC(CCCCN)C(=O)O)CC8=CN=CN8)C)C)C)CC(C)C [Nisin]
fitness, S. pneumoniae D39V, main component drawn
Details	partner 0.4275 µg/mL	partner 0.855 µg/mL	partner 1.6 µg/mL	partner 1.71 µg/mL	partner 3.2 µg/mL	partner 6.4 µg/mL
first compound 250 µg/mL	0.994	0.711	0.0198	0.0841	0.0317	0.0271
first compound 500 µg/mL	0.974	0.715	0.0324	0.114	0.0227	0.0184
first compound 1000 µg/mL	–	0.526	0.0339	0.0989	0.0138	0.0153

CC(=O)Oc1ccccc1C(=O)O [Acetylsalicylic acid] + CC(C1CCC(C(O1)OC2C(CC(C(C2O)OC3C(C(C(CO3)(C)O)NC)O)N)N)N)NC [Gentamicin]
fitness, S. pneumoniae D39V, main component drawn
Details	partner 2 µg/mL	partner 4 µg/mL	partner 8 µg/mL
first compound 250 µg/mL	0.955	0.967	0.93
first compound 500 µg/mL	0.972	0.947	0.917

CN(C)[C@@H]1C(O)=C(C(N)=O)C(=O)[C@@]2(O)C(O)=C3C(=O)c4c(O)ccc(Cl)c4[C@@](C)(O)[C@H]3C[C@@H]12 [Chlortetracycline] + CO/N=C(\C(=O)N[C@@H]1C(=O)N2C(C(=O)O)=C(COC(N)=O)CS[C@H]12)c1ccco1 [Cefuroxime]
fitness, B. subtilis 168
Details	first compound 0.0475 µg/mL	first compound 0.095 µg/mL	first compound 0.19 µg/mL
partner 0.04875 µg/mL	0.667	0.593	0.162
partner 0.0975 µg/mL	0.601	0.519	0.135
partner 0.195 µg/mL	0.429	0.312	0.0926

fitness, B. subtilis 168, one replicate
Details	partner 0.39 µg/mL	partner 0.78 µg/mL	partner 1.562 µg/mL	partner 3.125 µg/mL	partner 6.25 µg/mL
first compound 0.0475 µg/mL	0.346	0.362	0.303	0.275	0.21
first compound 0.095 µg/mL	0.207	0.145	0.103	0.0825	0.0597
first compound 0.19 µg/mL	0.0621	0.0481	0.038	0.0341	0.0237
